Assay [1] deals with T1, rat CYP17 (rat testicular microsomes) (Rattus norvegicus, UniProt P11715).
T1 construct: Rat testis tissue was collected and disrupted with 30 strokes of a glass homogenizer; from tissue; host or cells: rat testis (microsomes)
T1 sequence (P11715 1-507): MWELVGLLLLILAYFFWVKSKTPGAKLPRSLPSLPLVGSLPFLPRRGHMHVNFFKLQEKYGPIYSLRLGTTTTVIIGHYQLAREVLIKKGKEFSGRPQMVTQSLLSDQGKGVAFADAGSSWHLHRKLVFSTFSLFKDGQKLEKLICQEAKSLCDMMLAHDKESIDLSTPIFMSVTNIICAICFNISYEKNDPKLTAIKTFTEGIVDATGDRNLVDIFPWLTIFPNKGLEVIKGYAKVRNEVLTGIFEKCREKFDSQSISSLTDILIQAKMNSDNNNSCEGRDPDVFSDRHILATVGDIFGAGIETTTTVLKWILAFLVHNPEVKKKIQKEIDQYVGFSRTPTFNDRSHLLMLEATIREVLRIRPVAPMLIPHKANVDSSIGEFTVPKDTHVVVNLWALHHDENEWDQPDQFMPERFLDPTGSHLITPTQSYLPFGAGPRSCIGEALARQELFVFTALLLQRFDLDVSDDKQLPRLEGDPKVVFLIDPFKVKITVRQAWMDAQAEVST
In words: CYP17 inhibition assay in rat testicular microsomes. The format is biochemical. On the procedure:
CYP17 Inhibition Assay in Rat Testicular Microsomes (Rat CYP17) or Yeast Microsome Overexpressing Human CYP17
1. NADPH (Sigma): A working stock was prepared by adding 25 μL of 6.5 mM NADPH in each tube. The final concentration of NADPH used in the assay was 325 μM.
2. Potassium Phosphate Buffer: One molar (1M) solutions of K2HPO4 and KH2PO4 were prepared. Eight mL of the 1 M KH2PO4 and 1.98 mL of the 1 M K2HPO4 were combined and the pH was adjusted to 7.4.
3. ^3H3-17α-hydroxypregnenolone (American Radiolabeled Chemicals, Inc., stock 1 μCi/μL): A 1:1 dilution of ^3H3-17α-hydroxypregnenolone in ethanol was prepared by combining 100 μL ^3H3-17α-hydroxypregnenolone+100 μL ethanol for one complete 96 well plate. For the reaction, 2 μL of the diluted ^3H3-17α-hydroxypregnenolone was added in each tube, i.e., 1 μCi/reaction. 4. Microsome Isolation Buffer: The microsome isolation buffer was prepared by combining 250 mM Sucrose, 5 mM EDTA, 10 mM Tris HCl, 4 mM DTT, and adjusting to pH 7.4. 5. TEG Buffer: The TEG buffer was prepared by combining 50 mM Tris HCl, 1 mM EDTA, and 20% Glycerol. 6. Rat Testicular Microsomes: Rat testis tissue was collected and disrupted with 30 strokes of a glass homogenizer on ice with 250 μL of microsome isolation buffer, followed by centrifugation at 10,000 g for 10 minutes at 4° C. The supernatant was collected and centrifuged at 100,000 g for 45 minutes at 4° C. The pellet was dissolved in TEG Buffer and the protein was quantified. The homogenized microsome samples were then frozen at −80° C. • 7. Yeast Microsomes which overexpress the human CYP17 enzyme were obtained from Premas Biotech, India.
Potassium phosphate buffer (470 μL) was prepared as described above and was added to each well of a deep well plate. The test compound was diluted using a TECAN liquid handler and 5 μL of diluted compound was transferred to each well (96 deep well/1 mL). A solution (25 μL) of 6.5 mM NADPH was added (final concentration of 325 μM in the assay). ^3H3-17α-hydroxypregnenolone (2 μL of the working stock) was added to each tube. The plates were then pre-incubated for 15 minutes at 37° C. Following the pre-incubation, either 5 μL rat testicular microsomes (150-160 μg) or 5 μL of yeast microsomes expressing human CYP17 (1.7 pmol), was added. Incubation was at 37° C. for 60 minutes in the presence of oxygen. The plates were then placed in ice and chloroform (500 μL) was added, mixed well and incubated at 4° C. for 20 minutes. The plates were then centrifuged at 1000 rpm for 15 minutes at 4° C.
A portion (300 μL) of the aqueous solution was collected and mixed with a 5% aqueous suspension of activated charcoal (300 μL). The plates were then incubated at 4° C. for 30 minutes, after which the plates were centrifuged at 1000 rpm for 15 minutes at 4° C. From this, 125 μL of the aqueous solution was collected and plated into a 96 well plate. Microscint™ 40 [125 μL, Perkin-Elmer; containing a mixture of a polymer based on alkylphenolethoxylate (20-40%), diethanolamine-phosphoric acid ester ammonium salt (10-20%), sodium dioctyl sulphosuccinate (2.5-10%), triethyl phosphate (2.5-10%), 3,6-dimethyl-4-octyne-3,6-diol (≦2.5%), a polymer based on nonylphenolethoxylate (≦2.5%), diisopropyl naphthalene isomers (40-60%), 2,5-diphenyloxazole (≦2.5%), and 9,10-dimethylanthracene] was added and mixed well. After 30 minutes of incubation, the samples were analyzed with a MicroBeta® Trilux microplate liquid scintillation counter and luminometer (Perkin-Elmer).

The target in assay [2] is T2, human CYP17 in H295R adrenocortical carcinoma cells (Homo sapiens, UniProt P05093).
T2 construct: H295R Adrenocortical carcinoma cells [NCI-H295A, ATCC Number CRL-2128, American Type Culture Collection; host or cells: H295R adrenocortical carcinoma cells
T2 sequence (P05093 1-508): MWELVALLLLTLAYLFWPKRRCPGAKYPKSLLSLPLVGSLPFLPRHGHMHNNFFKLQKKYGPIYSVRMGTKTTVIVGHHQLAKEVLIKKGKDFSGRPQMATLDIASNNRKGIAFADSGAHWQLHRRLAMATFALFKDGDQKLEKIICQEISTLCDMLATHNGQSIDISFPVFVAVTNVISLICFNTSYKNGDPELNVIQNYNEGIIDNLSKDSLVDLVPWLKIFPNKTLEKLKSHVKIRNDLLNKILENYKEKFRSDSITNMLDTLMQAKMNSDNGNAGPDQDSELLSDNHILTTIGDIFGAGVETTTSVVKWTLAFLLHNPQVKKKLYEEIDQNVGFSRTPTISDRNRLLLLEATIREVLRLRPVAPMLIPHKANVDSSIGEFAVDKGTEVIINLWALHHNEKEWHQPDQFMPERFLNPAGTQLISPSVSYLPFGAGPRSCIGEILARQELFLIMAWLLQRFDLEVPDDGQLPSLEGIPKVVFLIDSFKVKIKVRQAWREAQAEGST
In words: Cell-based human CYP17 inhibition assay, H295R cells. Conditions: 16 hours, read-out: CYP17 (human H295R adrenal cells). On the procedure:
Cell-Based Human CYP17 Inhibition Assay
1. H295R Adrenocortical Carcinoma Cells and Growth Media: The media for the H295R Adrenocortical carcinoma cells [NCI-H295A, ATCC Number CRL-2128, American Type Culture Collection, Manassas, Va., US] (500 mL) was a DMEM:F12 Mix 1:1 with 5% (2 mL) BD Nu Serum; 1% (5 mL) ITS+Premix [BD Biosciences] and 1% Penstrep. 2. LNCap-CYP17 Cells and Growth Media: Full length hCYP17a1 gene (NCBI Reference Sequence: NM_000102.3) was cloned in pcDNA3.1(+) vector between HindIII and XhoI site. The pcDNA3.1(+) vector contains the Neomycin resistance gene and was used for selection of stable cell line. The hCYP17a1 containing pcDNA3.1(+) was transfected into LNCap cells to create the LNCap-CYP17 cell line. The media for the LNCaP-CYP17 cells was RPMI 1640, 10% FBS, 1% PenStrep, Geneticin 400 μg/mL.
The H295R cells or LNCaP-hCYP17 cells were subcultured and 30,000 cells per well were seeded in a poly-d lysine plate and incubated overnight at 37° C. The next day the media was removed and 200 μL of fresh media with ^3H3-17α-hydroxy-pregnenolone (1:1000) was added. 50 μL of serially diluted compounds from a 5× plate (5 times the final desired concentration) was added. The working concentration range for active, new compounds started from a high concentration of 10 μM with 3-fold serial dilutions generating up to 10 concentrations. The serial dilution in the 100× plate (in DMSO) and the stamping of a 5× plate (in media) from the 100× plate were carried out using a TECAN liquid handling device.
The plates were incubated overnight (16 hours) at 37° C. After 16 hours, the media was removed (approximately 220 μL) and an equal amount of chloroform was added, mixed and incubated for 30 minutes at 4 degrees. The plate was centrifuged at 4000 rpm for 15 minutes at 4° C., following which the top aqueous layer was carefully removed and added into a new deep well plate. An equal volume of activated 5% charcoal was added, mixed and incubated for 30 minutes at 4° C. The plate was then centrifuged at 4000 rpm for 15 minutes at 4° C. and the top layer carefully separated, avoiding any charcoal contamination, and placed in a white, clear bottom plate (plate cat #3610, Corning Life Sciences). An equal volume of Microscint™ 40 was added and mixed well. Following the incubation for 30 minutes, readings for the radiotracer were taken using a Microbeta® trilux.

15 compounds from US8809372B2, “Pyridine derivatives” (Endo Pharmaceuticals, Inc., priority 2011, dated 2014) can be followed below.

Structures are written as SMILES.

As for `CC(O)(c1ccncc1)c1cnc(-c2ccc(F)c(C#N)c2)s1` (stereo not drawn) [Example 40, 2-fluoro-5-(5-(1-hydroxy-1-(pyridin-4-yl)ethyl)thiazol-2-yl)benzonitrile], the IC50 in assay [1] and in assay [2] was less than 0.05 µM in each case.
Regarding `CC(O)(c1ccncc1)c1ncc(-c2ccc(F)cc2)s1` (single isomer, unassigned; (+)) [Example 55, (+)-1-(5-(4-fluorophenyl)thiazol-2-yl)-1-(pyridin-4-yl)ethanol], the IC50 in assay [1] is less than 0.05 µM; in assay [2], 0.05 to 0.2 µM.
The corresponding values for `CC(O)(c1ccncc1)c1cnc(-c2ccc(F)cc2)cn1` (stereo not drawn) [Example 11, 1-(5-(4-Fluorophenyl)pyrazin-2-yl)-1-(pyridin-4-yl)ethanol] are less than 0.05 µM and 0.201 to 10 µM.
In the same order, the values of `CC(O)(c1ccncc1)c1noc(-c2ccc(F)cc2)n1` (stereo not drawn) [Example 29, 1-(5-(4-Fluorophenyl)-1,2,4-oxadiazol-3-yl)-1-(pyridin-4-yl)ethanol] are less than 0.05 µM and 0.201 to 10 µM.
The corresponding values for `CC(O)(c1ccncc1)c1nnc(-c2ccc(F)cc2)o1` (stereo not drawn) [Example 31, 1-(5-(4-Fluorophenyl)-1,3,4-oxadiazol-2-yl)-1-(pyridin-4-yl)ethanol] are 0.05 to 0.2 µM and 0.201 to 10 µM.
`CC(O)(c1ccncc1)c1ccc(-c2ccc(C#N)cc2)cn1` (stereo not drawn) [Example 10, 4-(6-(1-hydroxy-1-(pyridin-4-yl)-ethyl)pyridin-3-yl)-benzonitrile]: the IC50 is less than 0.05 µM in assay [1] and 0.201 to 10 µM in assay [2].
Turning to `CC(O)(c1ccncc1)c1cnc(-c2ccc(C#N)c(Cl)c2)s1` (stereo not drawn) [Example 38, 2-chloro-4-(5-(1-hydroxy-1-(pyridin-4-yl)ethyl)thiazol-2-yl)benzonitrile], the IC50 was less than 0.05 µM in assay [1] and 0.05 to 0.2 µM in assay [2].
For the compound `CC(O)(c1ccncc1)c1nsc(-c2ccc(F)cc2)n1` (stereo not drawn) [Example 53, 1-(5-(4-fluorophenyl)-1,2,4-thiadiazol-3-yl)-1-(pyridin-4-yl)ethanol], the IC50 in assay [1] lay in the range of 0.05 to 0.2 µM; in assay [2], 0.201 to 10 µM.
As for `CC(O)(c1ccncc1)c1cc(-c2ccc(F)cc2)n[nH]1` (stereo not drawn) [Example 49, 1-(3-(4-fluorophenyl)-1H-pyrazol-5-yl)-1-(pyridin-4-yl)ethanol], the IC50 is less than 0.05 µM in assay [1] and 0.201 to 10 µM in assay [2].
The corresponding values for `CC(O)(c1ccncc1)c1cc(-c2ccc(F)cc2)ns1` (stereo not drawn) [Example 48, 1-(3-(4-fluorophenyl)isothiazol-5-yl)-1-(pyridin-4-yl)ethanol] are less than 0.05 µM and less than 0.05 µM.
Turning to `CC(O)(c1ccncc1)c1cnc(-c2ccc(C(F)(F)F)c(Cl)c2)s1` (stereo not drawn) [Example 41, 1-(2-(3-chloro-4-(trifluoromethyl)phenyl)thiazol-5-yl)-1-(pyridin-4-yl)ethanol], the IC50 in assay [1] and in assay [2] was less than 0.05 µM each time.
`CC(O)(c1ccncc1)c1cnc(-c2ccc(S(C)(=O)=O)cc2)s1` (stereo not drawn) [Example 45, 1-(2-(4-(methylsulfonyl)-phenyl)thiazol-5-yl)-1-(pyridin-4-yl)ethanol]: the IC50 in assay [1] is 0.05 to 0.2 µM; in assay [2] it was 0.201 to 10 µM.
With `CC(O)(c1ccncc1)c1cnc(-c2ccc(Cl)c(C#N)c2)s1` (stereo not drawn) [Example 42, 2-chloro-5-(5-(1-hydroxy-1-(pyridin-4-yl)ethyl)thiazol-2-yl)benzonitrile], the IC50 in assay [1] and in assay [2] was less than 0.05 µM in each case.
As to `CC(O)(c1ccncc1)c1cc(-c2ccc(F)cc2)sn1` (stereo not drawn) [Example 63, 1-(5-(4-fluorophenyl)isothiazol-3-yl)-1-(pyridin-4-yl)ethanol], the IC50 in assay [1] and in assay [2] was less than 0.05 µM each time.
Consider `CC(O)(c1ccncc1)c1cnc(-c2ccc(C#N)c(C(F)(F)F)c2)s1` (stereo not drawn) [Example 30, 4-(5-(1-Hydroxy-1-(pyridin-4-yl)ethyl)thiazol-2-yl)-2-(trifluoro-methyl)benzonitrile], for which the IC50 in assay [1] was less than 0.05 µM; in assay [2], 0.05 to 0.2 µM.
